Source: ChEMBL document CHEMBL4152208, “Synthesis and structure-activity relationships of quinolinone and quinoline-based P2X7 receptor antagonists and their anti-sphere formation activities in glioblastoma cells” (Eur J Med Chem, 2018)
The source made the active and inactive calls. The calls are words filed in the database; no cut-off is given here.

Assays:
P2X purinoceptor 3 = target: T1, P2X purinoceptor 3 (Homo sapiens, UniProt P56373); test: Antagonist activity at human P2X3 receptor expressed in 1321N1 cells assessed as inhibition of ATP-induced calcium flux measured for 30 secs at 0.4 secs intervals by Flou-4-AM dye based fluorescence assay; assay type: cell-based
T1 sequence (P56373 whole entry): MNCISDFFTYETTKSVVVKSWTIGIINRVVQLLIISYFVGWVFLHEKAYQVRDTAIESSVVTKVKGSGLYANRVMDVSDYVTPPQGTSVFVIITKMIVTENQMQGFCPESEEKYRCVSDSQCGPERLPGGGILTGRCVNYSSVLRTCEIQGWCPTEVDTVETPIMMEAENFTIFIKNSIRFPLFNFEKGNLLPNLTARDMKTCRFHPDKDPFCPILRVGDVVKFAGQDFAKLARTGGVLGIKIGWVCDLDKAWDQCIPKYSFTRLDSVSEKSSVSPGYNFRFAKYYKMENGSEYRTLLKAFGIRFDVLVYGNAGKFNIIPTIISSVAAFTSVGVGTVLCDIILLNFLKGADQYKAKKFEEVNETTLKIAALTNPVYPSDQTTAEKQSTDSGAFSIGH

[1] = Increase in MYC mRNA expression in human TS15-88 cells after 72 hrs by qRT-PCR analysis relative to control; assay type: functional
[2] = Inhibition of neurosphere formation in human TS15-88 cells assessed as decrease in sphere size at 50 uM after 5 days by microscopic analysis relative to control; assay type: functional; conditions: 120 h
[3] = target: T2, P2X purinoceptor 1 (Homo sapiens) (UniProt P51575); test: Antagonist activity at human P2X1 receptor expressed in 1321N1 cells assessed as inhibition of ATP-induced calcium flux at 1 uM measured for 30 secs at 0.4 secs intervals by Flou-4-AM dye based fluorescence assay relative to control; assay type: cell-based
T2 sequence (whole entry): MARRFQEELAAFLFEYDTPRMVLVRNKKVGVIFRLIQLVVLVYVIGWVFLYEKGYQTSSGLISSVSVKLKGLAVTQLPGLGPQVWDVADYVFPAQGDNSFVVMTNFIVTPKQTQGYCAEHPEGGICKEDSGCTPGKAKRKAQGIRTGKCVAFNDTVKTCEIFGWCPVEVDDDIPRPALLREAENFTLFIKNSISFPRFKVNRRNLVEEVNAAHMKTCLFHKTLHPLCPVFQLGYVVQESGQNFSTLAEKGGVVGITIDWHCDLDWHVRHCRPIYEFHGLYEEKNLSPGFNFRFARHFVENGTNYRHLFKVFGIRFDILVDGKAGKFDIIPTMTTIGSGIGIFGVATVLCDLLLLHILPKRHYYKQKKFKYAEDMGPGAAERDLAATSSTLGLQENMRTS

Homo sapiens [4] = species: Homo sapiens; test: Effect on SOX2 mRNA expression in human TS15-88 cells after 72 hrs by qRT-PCR analysis; assay type: functional, cell-based
[5] = Antiproliferative activity against human TS15-88 cells after 24 to 72 hrs by MTS assay; assay type: functional, cell-based
Homo sapiens [6] = species: Homo sapiens; test: Antiproliferative activity against human TS15-88 cells at 50 uM after 24 hrs by MTS assay; assay type: functional, cell-based
Homo sapiens [7] = species: Homo sapiens; test: Antiproliferative activity against human TS15-88 cells at 50 uM after 72 hrs by MTS assay; assay type: functional, cell-based
[8] = Reduction of […] mRNA expression in human TS15-88 cells after 72 hrs by qRT-PCR analysis relative to control; assay type: functional; design: scale not given: the % may be the effect or the level left
[9] = Metabolic stability in human liver microsomes assessed as parent compound remaining at 1 uM up to 30 mins in presence of NADPH by LC-MS/MS analysis; assay type: ADME, microsome; conditions: read-out: Stability

O=C(CC12CC3CC(CC(C3)C1)C2)Nc1cccc2nc(Cl)ccc12
IC50 (P2X purinoceptor 3): Not Active | Activity [1]: 41% | inhibition at 50 µM [2]: > 50% | inhibition [3]: 13% | Activity (Homo sapiens [4]): inactive | IC50 [5]: 40 µM | Activity (Homo sapiens [6]): Active | Activity (Homo sapiens [7]): Active | Activity [8]: 41% | remaining at 0.5 h, 1 µM [9]: 0.04%
